These results are taken from patent publication US20230097253A1, “NOVEL QUINAZOLINE COMPOUND AS THERAPEUTIC AGENT FOR METABOLIC DISORDERS” (BIOWAY., INC, priority 2020, published 2023).

For experiment [1], the system named is Huh7 cells induced with inflammatory response. The experiment can be described thus: Gene expression in liver cells induced with inflammatory response (qRT-PCR). It is filed as cell-based. Conditions: Huh7 cells pretreated with IL-1β; 0.5, 2.5, 10 μM; FIG. 11, FIG. 12. As to the method: After culturing the Huh-7 cells to grow to a confluency of 80-90% in a 6 well plate, except for the control, the cells were pretreated with IL-1β and then treated with BW-3290, which is the compound of the present invention, diluted in the culture medium to concentrations of 0.5 μM, 2.5 μM, and 10 μM, so as to induce an inflammatory response.
Additionally, the total RNA was extracted using the RNeasy RNA isolation kit (Qiagen, Hilden, Germany).
Additionally, 10 μL of […] per mL of a cell lysis solution was additionally prepared.
Additionally, the cells were washed twice with cold PBS and 350 μL of RNA lysis buffer was added thereto.
Additionally, 70% EtOH was added to the lysate in an equal volume, mixed by pipetting, transferred to a spin column, and centrifuged at 8,000×g for 15 seconds.
Additionally, the flow-through solution was removed and 700 μL of a wash solution was added to the spin column, centrifuged at 8,000×g, and the flow-through solution was removed.
Additionally, 500 μL of the wash buffer containing EtOH was added to the spin column and centrifuged at 8,000×g for 2 minutes (repeated 2 times)
Additionally, the flow-through solution was discarded and centrifuged once more to completely dry the spin column membrane.
Additionally, the spin column was placed into a new Eppendorf tube and 50 μL of RNase-free water was added directly to the spin column membrane and centrifuged at 8,000×g for 1 minute to dissolve and isolate the RNA.
Additionally, RNA concentration was measured at OD 260 nm using the Nanophotometer N60 (Implen, Munich, Germany)
Additionally, 1 μg of total RNA was reverse transcribed in the first strand synthesis buffer containing oligo (dT) primer (6 μg/mL), random primer (3 μg/mL), 50 U of reverse transcriptase, 4 mM dNTP, […], 5 mM magnesium chloride (MgCl2), and 40 U of RNase inhibitor.
Additionally, cDNA was synthesized using a polymerase chain reaction (PCR) device which was set to undergo denaturation at 95° C. for 5 minutes, cDNA synthesis at 42° C. for 50 minutes, and denaturation at 95° C. for 5 minutes. […]

Experiment [2] relates to steatosis-induced Huh7 cells. Briefly: Fat globule reducing effect by Oil-Red-O staining, compared to existing developed materials. It is filed as cell-based. Conditions: FIG. 3. As to the method: In order to confirm the inhibition of fat accumulation in steatosis-induced liver cells, Huh7 cells were cultured in an incubator set at 37° C., 95% humidity, and 5% C02.
Additionally, Huh7 cells were proliferated to a confluency of 80-90% on a plate using a growth medium (Dulbecco's modified Eagle's medium (DMEM) supplemented with 10% fetal bovine serum (FBS), 100 U/ml of penicillin, and 100 μg/ml of streptomycin), and then used for the experiment.
In order to confirm the ability of BW-3290 to inhibit fat globule accumulation in steatosis-induced liver cells compared to the existing material under development, the liver cells were treated with palmitic acid (PA) bound to 2% BSA at a concentration of 250 μM except for the control group to induce steatosis, and then fat globules were stained through Oil-Red-O staining.
First, liver cells were cultured to grow 80-90% confluency in a 12 well plate, and the test material, BW-3290, were diluted in the culture medium that induced steatosis and the liver cells, except for the control group, were treated with 0.5 μM, 2.5 μM, 5 μM, and […].
Additionally, after removing the cell supernatant from the wells for Oil-Red-O staining, the washing process was performed twice with PBS.
Additionally, after washing, the resultant was fixed with 4% paraformaldehyde for 30 minutes. […]

As for `CC(C)C(Nc1ncnc2nc[nH]c12)c1nc2cccc(Cl)c2c(=O)n1-c1ccccc1` (centres unmarked) [BW-3290, 2-(1-((7H-purin-6-yl)amino)-2-methylpropyl)-5-chloro-3-phenylquinazolin-4(3H)-one], in experiment [1], the “gene expression level of IL-6” value is reported as “decreased in a concentration-dependent manner”, the “gene expression level of IL-8” value is given as “decreased in a concentration-dependent manner” and the “gene expression level of TNF-α” value was “decreased in a concentration-dependent manner”. In addition, the “fat globule staining (Oil-Red-O) compared to PA” value in experiment [2] (250 μM PA, 0.5, 2.5, 5 and 10 μM, concentration dependent) is listed as “lower level of fat globule staining compared to PA”. Further, the “staining of fat globules in comparison with PF-06409577 and elafibranor” value in experiment [2] (250 μM PA, at the same concentration of 10 μM and at lower concentrations) is listed as “reduced”.
